Calls of active or inactive are those of the source. No rule for the calls is given here.
system: HT1080 viability, ATPLite luminescence, overnight; experiment: viability of HT1080 fibrosarcoma cells – cell-based, ATPLite luminescence, set 2, cytotoxicity control for MT1-MMP activation inhibitor project, dose response (AID 652246)

Structure (SMILES) | IC50
CCN1C(=O)/C(=C2\C=Cc3ccccc3N2CC)SC1=S | > 80 µM (inactive)
COc1ccc2nc(-n3c(O)c(C4=c5ccccc5=NC4=O)[nH]c3=S)sc2c1 | > 80 µM (inactive)
COc1ccccc1N=Nc1nc(-c2ccccc2)c(-c2ccccc2)[nH]1 | > 80 µM (inactive)
CN1/C(=C\C(=O)c2cncc(Br)c2)C(C)(C)c2ccccc21 | 30.2 µM (inactive)
O=S(=O)(O)c1cc(O)c(N=Nc2ccc(O)cc2O)c2ccccc12 | 30.5 µM (inactive)
O=c1cc2oc3cc(O)c(O)cc3c(-c3ccccc3[N+](=O)[O-])c-2cc1O | > 80 µM (inactive)
CC[n+]1c(/C=C/Nc2ccccc2)sc2ccccc21 | > 80 µM (inactive)
COc1cc(-c2cc(=O)c3c(O)c(OC)c(OC)cc3o2)cc(OC)c1O | > 80 µM (inactive)
CN1/C(=C/C=C/c2n(C)c3cc([N+](=O)[O-])c([N+](=O)[O-])cc3[n+]2C)C(C)(C)c2ccccc21 | 39.5 µM (inactive)
Cc1c(C(=O)O)c(O)cc2c1C(=O)c1c(O)c([C@@H]3O[C@H](CO)[C@@H](O)[C@H](O)[C@H]3O)c(O)c(O)c1C2=O | > 80 µM (inactive)
O=C(NNc1c2ccccc2nc2ccccc12)c1ccccc1O | > 80 µM (inactive)
Cc1ccc(C(=O)NNc2c3ccccc3nc3ccccc23)cc1 | > 80 µM (inactive)
COc1ccc(OCC(=O)NNc2c3ccccc3nc3ccccc23)cc1 | > 80 µM (inactive)
Nc1nc(-c2ccccc2)c(N=Nc2ccccc2Cl)s1 | > 80 µM (inactive)
Oc1ccc(N=Nc2c(O)ccc3ccccc23)cc1 | 54.8 µM (inactive)
C[n+]1c2ccccc2nc2ccc(NCCO)cc21 | > 80 µM (inactive)
CN1/C(=C\C=N\NC(=O)c2ccc(O)cc2)C(C)(C)c2ccccc21 | > 80 µM (inactive)
Cn1cccc1/C=C1/C(=O)NC(=S)N(Cc2ccc(F)cc2)C1=O | > 80 µM (inactive)
CN(C)/C=C/c1oc2ccc(O)cc2c1[N+](=O)[O-] | > 80 µM (inactive)
CN(CCCC(=O)O)c1ccc(N=Nc2ccc([N+](=O)[O-])cc2)cc1 | 15.8 µM
O=c1ccc2c(-c3ccccc3S(=O)(=O)O)c3ccc(O)c(O)c3oc-2c1O | > 80 µM (inactive)
